Results reported in ChEMBL document CHEMBL1201862, “PubChem BioAssay data set” (2004).
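Briefly, cells in 96-well plates were exposed to five compound concentrations for 48 h, and endpoints were estimated by linear interpolation. The concentration for 50% growth inhibition is given as GI50.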 The source made the active and inactive calls. Rule as the data show it: active = GI50 up to about 1.1 µM and inactive = higher.

How the values were obtained:
Assay in all cases: NCI-60 cell line screen, 48 h
SNB-75 = system: SNB-75
CAKI-1 = system: CAKI-1
COLO 205 = system: COLO 205
MDA-MB-231 = system: MDA-MB-231
UO-31 = system: UO-31
SN12C = system: SN12C
SK-MEL-2 = system: SK-MEL-2
UACC-257 = system: UACC-257
TK-10 = system: TK-10
EKVX = system: EKVX
HCC 2998 = system: HCC 2998
HCT-15 = system: HCT-15
T47D = system: T47D
A549 = system: A549
ACHN = system: ACHN
K562 = system: K562
NCI-H460 = system: NCI-H460
UACC-62 = system: UACC-62
786-0 = system: 786-0

| Compound | GI50 (SNB-75) | GI50 (CAKI-1) | GI50 (COLO 205) | GI50 (MDA-MB-231) | GI50 (UO-31) | GI50 (SN12C) | GI50 (SK-MEL-2) | GI50 (UACC-257) | GI50 (TK-10) | GI50 (EKVX) | GI50 (HCC 2998) | GI50 (HCT-15) [µM] | GI50 (T47D) | GI50 (A549) | GI50 (ACHN) | GI50 (K562) | GI50 (NCI-H460) | GI50 (UACC-62) | GI50 (786-0) |
| --- | --- | --- | --- | --- | --- | --- | --- | --- | --- | --- | --- | --- | --- | --- | --- | --- | --- | --- | --- |
| O=[N+]([O-])c1ccc(Sc2c3ccccc3nc3ccccc23)nc1 | 15.6 µM (inactive) | 4.88 µM (inactive) | 2.37 µM (inactive) | 6.14 µM (inactive) | 5.08 µM (inactive) | 13.2 µM (inactive) | 20.4 µM (inactive) | 7.06 µM (inactive) | 2.96 µM (inactive) | 17 µM (inactive) | 15.7 µM (inactive) | 4 | 2.57 µM (inactive) | 26.2 µM (inactive) | 7.87 µM (inactive) | 2.08 µM (inactive) | 23.2 µM (inactive) | 15.3 µM (inactive) | 2.2 µM (inactive) |
| CC1(C)OC(=S)N(c2ccccc2)C12C=Cc1ccccc1O2 (centres undefined) | 49.2 µM (inactive) | > 100 µM (inactive) | 63.4 µM (inactive) | > 100 µM (inactive) | 45.6 µM (inactive) | > 100 µM (inactive) | > 100 µM (inactive) | 42.1 µM (inactive) | > 100 µM (inactive) | 53.5 µM (inactive) | > 100 µM (inactive) | 58.9 | 20.5 µM (inactive) | > 100 µM (inactive) | > 100 µM (inactive) | 29.1 µM (inactive) | 71.6 µM (inactive) | 75.5 µM (inactive) | > 100 µM (inactive) |
| Cn1c2cc(Cl)ccc2c2ccc3c(c21)C(=O)C=CC3=O | > 71 µM (inactive) | 13.5 µM (inactive) | 13.8 µM (inactive) | 26.9 µM (inactive) | 45.7 µM (inactive) | 14 µM (inactive) | 33.3 µM (inactive) | 26.4 µM (inactive) | 26.9 µM (inactive) | > 71.4 µM (inactive) | > 100 µM (inactive) | 22.4 | 14.1 µM (inactive) | > 100 µM (inactive) | 16.8 µM (inactive) | 3.4 µM (inactive) | > 100 µM (inactive) | 21.5 µM (inactive) | 18.8 µM (inactive) |
| O=C1/C(=N\NC(=S)NC2CCCCC2)c2cc([N+](=O)[O-])ccc2N1CN1CCOCC1 | 11.5 µM (inactive) | 3.3 µM (inactive) | 5.32 µM (inactive) | 15.8 µM (inactive) | 6.31 µM (inactive) | 3.72 µM (inactive) | 11.7 µM (inactive) | 10.5 µM (inactive) | 6.76 µM (inactive) | 3.13 µM (inactive) | 4.93 µM (inactive) | 2.39 | 2.64 µM (inactive) | 4.05 µM (inactive) | 5.11 µM (inactive) | 3.61 µM (inactive) | 2.55 µM (inactive) | 7.89 µM (inactive) | 5.52 µM (inactive) |
| COc1cc2ncnc(NS(=O)(=O)c3cc4ccccc4s3)c2cc1OC | 47.8 µM (inactive) | > 100 µM (inactive) | > 100 µM (inactive) | > 100 µM (inactive) | 76 µM (inactive) | 70.5 µM (inactive) | > 100 µM (inactive) | > 100 µM (inactive) | > 100 µM (inactive) | 75 µM (inactive) | > 100 µM (inactive) | > 100 | 25.2 µM (inactive) | > 100 µM (inactive) | > 100 µM (inactive) | 56.1 µM (inactive) | > 100 µM (inactive) | 89.1 µM (inactive) | > 100 µM (inactive) |
| COC(=O)C1=C(C(=O)OC)C2(c3ccccc3)c3ccccc3C(=O)C1N2C1CCCCC1 (centres undefined) | > 66.8 µM (inactive) | 49.1 µM (inactive) | 16.8 µM (inactive) | > 32.4 µM (inactive) | 13 µM (inactive) | 49.5 µM (inactive) | > 61.9 µM (inactive) | 11.9 µM (inactive) | 31.3 µM (inactive) | 55.6 µM (inactive) | 23.2 µM (inactive) | 48.2 | > 100 µM (inactive) | 17.7 µM (inactive) | 29.2 µM (inactive) | 3.42 µM (inactive) | 24.5 µM (inactive) | 61.8 µM (inactive) | 47.4 µM (inactive) |
